Results reported in PubChem BioAssay (NCI).
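The compound was tested at five concentrations on cells cultured in 96-well plates, with a 48-hour exposure period. Definition used: TGI = concentration required for complete inhibition of growth.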

Experiments:
Assay in all cases: NCI tumour cell line growth inhibition, 48 h
HCC-2998 colon = tested on: HCC-2998 colon
RXF 393 renal = tested on: RXF 393 renal
HT29 colon = tested on: HT29 colon
UO-31 renal = tested on: UO-31 renal
MDA-MB-231 breast = tested on: MDA-MB-231 breast
786-0 renal = tested on: 786-0 renal
OVCAR-3 ovarian = tested on: OVCAR-3 ovarian
HCT-116 colon = tested on: HCT-116 colon
UACC-257 melanoma = tested on: UACC-257 melanoma
SW-620 colon = tested on: SW-620 colon
SK-MEL-5 melanoma = tested on: SK-MEL-5 melanoma
SK-MEL-28 melanoma = tested on: SK-MEL-28 melanoma
HOP-92 NSCLC = tested on: HOP-92 NSCLC
U251 CNS = tested on: U251 CNS
ACHN renal = tested on: ACHN renal
HCT-15 colon = tested on: HCT-15 colon
NCI-H522 lung = tested on: NCI-H522 lung
TK-10 renal = tested on: TK-10 renal
UACC-62 melanoma = tested on: UACC-62 melanoma
SN12C renal = tested on: SN12C renal
CCRF-CEM leukemia = tested on: CCRF-CEM leukemia
NCI-H23 lung = tested on: NCI-H23 lung
SNB-19 CNS = tested on: SNB-19 CNS
A498 renal = tested on: A498 renal
MCF7 breast = tested on: MCF7 breast
NCI-H226 lung = tested on: NCI-H226 lung
EKVX NSCLC = tested on: EKVX NSCLC
A549 NSCLC = tested on: A549 NSCLC
OVCAR-8 ovarian = tested on: OVCAR-8 ovarian
IGROV1 ovarian = tested on: IGROV1 ovarian
KM12 colon = tested on: KM12 colon
MOLT-4 leukemia = tested on: MOLT-4 leukemia
HL-60(TB) leukemia = tested on: HL-60(TB) leukemia
DU-145 prostate = tested on: DU-145 prostate
COLO 205 colon = tested on: COLO 205 colon
MDA-MB-435 = tested on: MDA-MB-435
BT-549 breast = tested on: BT-549 breast
OVCAR-4 ovarian = tested on: OVCAR-4 ovarian
PC-3 prostate = tested on: PC-3 prostate
HS 578T breast = tested on: HS 578T breast
OVCAR-5 ovarian = tested on: OVCAR-5 ovarian
SK-MEL-2 melanoma = tested on: SK-MEL-2 melanoma
HOP-62 NSCLC = tested on: HOP-62 NSCLC
SK-OV-3 ovarian = tested on: SK-OV-3 ovarian
M14 melanoma = tested on: M14 melanoma
RPMI-8226 leukemia = tested on: RPMI-8226 leukemia
NCI/ADR-RES ovarian = tested on: NCI/ADR-RES ovarian
LOX IMVI melanoma = tested on: LOX IMVI melanoma
T-47D breast = tested on: T-47D breast
K-562 leukemia = tested on: K-562 leukemia
SF-268 CNS = tested on: SF-268 CNS
CAKI-1 renal = tested on: CAKI-1 renal
SF-295 CNS = tested on: SF-295 CNS
NCI-H460 lung = tested on: NCI-H460 lung
MALME-3M melanoma = tested on: MALME-3M melanoma

## CS(=O)(=O)Nc1ccc(Nc2cc[nH]c3ccc4nccc4c23)cc1
HCC-2998 colon
  TGI: 16.3 µM
RXF 393 renal
  TGI: 30.2 µM
HT29 colon
  TGI: 48.4 µM
UO-31 renal
  TGI: > 81.2 µM
MDA-MB-231 breast
  TGI: 21.6 µM
786-0 renal
  TGI: 38.4 µM
OVCAR-3 ovarian
  TGI: 32.5 µM
HCT-116 colon
  TGI: > 43.1 µM
UACC-257 melanoma
  TGI: 31.5 µM
SW-620 colon
  TGI: 49.8 µM
SK-MEL-5 melanoma
  TGI: 24.7 µM
SK-MEL-28 melanoma
  TGI: 32.2 µM
HOP-92 NSCLC
  TGI: 46.3 µM
U251 CNS
  TGI: 22 µM
ACHN renal
  TGI: 65.3 µM
HCT-15 colon
  TGI: > 100 µM
NCI-H522 lung
  TGI: 24.3 µM
TK-10 renal
  TGI: 82.1 µM
UACC-62 melanoma
  TGI: 28.1 µM
SN12C renal
  TGI: 32.3 µM
CCRF-CEM leukemia
  TGI: > 67.8 µM
NCI-H23 lung
  TGI: 38.5 µM
SNB-19 CNS
  TGI: 26.3 µM
A498 renal
  TGI: 34.2 µM
MCF7 breast
  TGI: 20.7 µM
NCI-H226 lung
  TGI: 24.5 µM
EKVX NSCLC
  TGI: 58.7 µM
A549 NSCLC
  TGI: 38.8 µM
OVCAR-8 ovarian
  TGI: > 65.1 µM
IGROV1 ovarian
  TGI: 58.5 µM
KM12 colon
  TGI: 28.1 µM
MOLT-4 leukemia
  TGI: 7.78 µM
HL-60(TB) leukemia
  TGI: 42 µM
DU-145 prostate
  TGI: 22.2 µM
COLO 205 colon
  TGI: 44.2 µM
MDA-MB-435
  TGI: 29.5 µM
BT-549 breast
  TGI: 40 µM
OVCAR-4 ovarian
  TGI: 26.2 µM
PC-3 prostate
  TGI: 30.3 µM
HS 578T breast
  TGI: > 60.8 µM
OVCAR-5 ovarian
  TGI: 61.1 µM
SK-MEL-2 melanoma
  TGI: 23.9 µM
HOP-62 NSCLC
  TGI: 37.3 µM
SK-OV-3 ovarian
  TGI: > 100 µM
M14 melanoma
  TGI: 30.4 µM
RPMI-8226 leukemia
  TGI: 44.6 µM
NCI/ADR-RES ovarian
  TGI: > 100 µM
LOX IMVI melanoma
  TGI: 34.2 µM
T-47D breast
  TGI: 22.6 µM
K-562 leukemia
  TGI: 32 µM
SF-268 CNS
  TGI: 18.9 µM
CAKI-1 renal
  TGI: 68.4 µM
SF-295 CNS
  TGI: 62.2 µM
NCI-H460 lung
  TGI: 31.8 µM
MALME-3M melanoma
  TGI: 18.4 µM
